Series [1] has as its system GIST. As to conditions: 345 patients, 400 mg/day, cited from earlier work.
Series [2] concerns advanced GIST. As to conditions: cited from earlier work.
Series [3] has as its target c-Kit gain-of-function mutant V559D (exon 11) (Homo sapiens, UniProt P10721, V559D). As to conditions: in vitro; cited from earlier work.

The structures appear in SMILES notation.

As to `Cc1ccc(NC(=O)c2ccc(N(C)C)cc2)cc1Nc1nc(-c2cccnc2)cs1` [Compound 047, 4-Dimethylamino-N-[4-methyl-3-(4-pyridin-3-yl-thiazol-2-ylamino)-phenyl]-benzamide], the melting point (in general, the temperature of the solid-liquid transition) was in the range of 147 to 150 °C. Same read-out and setting: then `Cc1ccc(NC(=O)c2cccc(N3CCOCC3)c2)cc1Nc1nc(-c2cccnc2)cs1` [Compound 090, N-[4-Methyl-3-(4-pyridin-3-yl-thiazol-2-ylamino)-phenyl]-3-morpholin-4-yl-benzamide], with 247 to 248 °C; and `Cc1ccc(NC(=O)Nc2ccccc2F)cc1Nc1nc(-c2cccnc2)cs1` [Compound 023, 1-(2-Fluoro-phenyl)-3-[4-methyl-3-(4-pyridin-3-yl-thiazol-2-ylamino)-phenyl]-urea], with 203 to 206 °C; and `Cc1ccc(NC(=O)c2cccc(OCCN3CCOCC3)c2)cc1Nc1nc(-c2cccnc2)cs1` [Compound 052, N-[4-Methyl-3-(4-pyridin-3-yl-thiazol-2-ylamino)-phenyl]-3-(2-morpholin-4-yl-ethoxy)-benzamide], with 75 to 80 °C. Still for that read-out and setting: with `Cc1ccc(NC(=O)c2ccc(C(C)(C)C)cc2)cc1Nc1nc(-c2cccnc2)cs1` [Compound 049, 4-tert-Butyl-N-[4-methyl-3-(4-pyridin-3-yl-thiazol-2-ylamino)-phenyl]-benzamide] the figure was 145 to 150 °C. Same read-out and setting: with `Cc1ccc(NC(=O)c2ccc(NS(=O)(=O)c3cccs3)cc2)cc1Nc1nc(-c2cccnc2)cs1` [Compound 044, N-[4-Methyl-3-(4-pyridin-3-yl-thiazol-2-ylamino)-phenyl]-4-(thiophene-2-sulfonylamino)-benzamide] the figure was 230 to 233 °C; with `Cc1ccc(NC(=O)CCCN2CCOCC2)cc1Nc1nc(-c2cccnc2)cs1` [Compound 096, N-[4-Methyl-3-(4-pyridin-3-yl-thiazol-2-ylamino)-phenyl]-4-morpholin-4-yl-butyramide], 116 to 120 °C. `Cc1ccc(NC(=O)c2cccc(N(C)C)c2)cc1Nc1nc(-c2cccnc2)cs1` [Compound 088, 3-Dimethylamino-N-[4-methyl-3-(4-pyridin-3-yl-thiazol-2-ylamino)-phenyl]-benzamide] returned a melting point of 197 to 198 °C.

In the case of `Cc1ccc(NC(=O)c2ccc(CN3CCN(C)CC3)cc2)cc1Nc1nccc(-c2cccnc2)n1` [imatinib], the “median PFS” value in series [1] (95% CI [16-21]) is recorded as 18 months. The “2-year PFS rate” value in series [1] (95% CI [36-47]) is listed as 46%. Further, the “Median overall survival (OS)” value in series [1] (95% CI [47-62]) was 55 months. In addition, the 2-year survival in series [1] (95% CI [67-77]) is listed as 72%. Besides, in series [1], the 3-year survival is on record as approximately 61%. For the same compound, the “2-year survival rate of patients with advanced GIST” value in series [2] (after introduction of imatinib (pre-imatinib 25%)) is recorded as “about 70%”. Besides, the “early resistance (progression within the first 6 months, no response), patients” value in series [2] (in vivo) is on record as 10-15%. In the case of `COc1cccc(C(=O)Nc2ccc(C)c(Nc3nc(-c4cccnc4)cs3)c2)c1` [Compound 059], the melting point fell in the range of 76 to 79 °C.

For the compound `CS(=O)(=O)O.CS(=O)(=O)O.Cc1ccc(NC(=O)c2ccc(CN3CCN(C)CC3)cc2)cc1Nc1nc(-c2cccnc2)cs1` [masitinib mesilate, 4-(4-methylpiperazin-1-ylmethyl)-N-[4-methyl-3-(4-pyridin-3ylthiazol-2-ylamino)phenyl]benzamide-mesylate methane sulfonic acid salt], in series [3], the “inhibition of c-Kit mutant V559D (exon 11)” value is listed as “potently inhibits”. Turning to `Cc1ccc(NC(=O)c2cccc(F)c2)cc1Nc1nc(-c2cccnc2)cs1` [Compound 045, 3-Fluoro-N-[4-methyl-3-(4-pyridin-3-yl-thiazol-2-ylamino)-phenyl]-benzamide], the melting point was 184 to 186 °C. For `Cc1ccc(NC(=O)Nc2ccc(C)c(Nc3nc(-c4cccnc4)cs3)c2)cc1` [Compound 026, 1-[4-Methyl-3-(4-pyridin-3-yl-thiazol-2-ylamino)-phenyl]-3-p-tolyl-urea], the melting point lay within 238 to 240 °C. Take `Cc1ccc(NC(=O)c2ccc(-c3ccncc3)cc2)cc1Nc1nc(-c2cccnc2)cs1` [Compound 046, N-[4-Methyl-3-(4-pyridin-3-yl-thiazol-2-ylamino)-phenyl]-4-pyridin-4-yl-benzamide]: the melting point is 254 to 256 °C. As for `Cc1ccc(NC(=O)Nc2cccc(F)c2)cc1Nc1nc(-c2cccnc2)cs1` [Compound 025, 1-(3-Fluoro-phenyl)-3-[4-methyl-3-(4-pyridin-3-yl-thiazol-2-ylamino)-phenyl]-urea], the melting point lay in the range of 210 to 215 °C. As to `Cc1ccc(F)c(C(=O)Nc2ccc(C)c(Nc3nc(-c4cccnc4)cs3)c2)c1` [Compound 048, 2-Fluoro-5-methyl-N-[4-methyl-3-(4-pyridin-3-yl-thiazol-2-ylamino)-phenyl]-benzamide], the melting point was 103 to 106 °C.

The values above are taken from patent US20110201620A1, “2-(3-AMINOARYL) AMINO-4-ARYL-THIAZOLES AND THEIR USE AS C-KIT INHIBITORS” (AB SCIENCE, priority 2002, published 2011).
